Measurements from paper PMC9145846, “Polycyclic Phenol Derivatives from the Leaves of Spermacoce latifolia and Their Antibacterial and α-Glucosidase Inhibitory Activity” (Molecules, 2022).
In brackets after ≈: the same amount, converted by molar mass. Counter-ions that a name gives are not always drawn. Like-named read-outs stand apart in the source and are kept apart here.

Columns and labels:
[1] = tested on: Staphyloccocus aureus (CMCC26003); assay: Antibacterial assay (resazurin, 96-well doubling dilution), SA; assay type: cell-based; conditions: for MIC: read-out: MIC, SA
Method: (§1) The antibacterial assay was monitored in 96-well plates by using a method as described previously. Briefly, 100 μL indicator solution (resazurin in sterile water, 100 μg/mL) was first placed into each of the sterility control wells (11th column) on the 96-well plates, and the indicator solution (about 7.5 mL, 100 μg/mL) was mixed with test bacteria (5 mL, 10^6 cfu/mL, OD600 = 0.07) followed by transferring (100 μL, each) to growth control wells (12th column) and all test wells (1–10th column). Then, each of 100 μL of test compounds (1 mg/mL) in beef extract peptone medium, along with the positive control solutions (prepared by adding kanamycin sulfate and vancomycin instead of the samples) and the negative control solution (3% DMSO of beef extract peptone medium), were applied to the wells in the 1st column of the plates. Once all samples and controls were properly applied to the 1st column of wells on the plate, half of the homogenized content (100 μL solution) was then parallel-transferred from the 1st column wells to the 2nd column wells, and each subsequent well was treated similarly (doubling dilution) up to the 10th column, followed by discarding the last 100 μL aliquot. Finally, the plates were incubated at 37 °C for 5–6 h until the color of growth control change to pink. The lowest concentration for each test compound at which […] was recorded as the MIC value of the test compound. In the bioassay, Gram-(+) bacterial strains of Staphyloccocus aureus (CMCC26003), methicillin-resistant Staphylococcus aureus (MRSA), Bacillus cereus (CMCC63302), Bacillus subtilis (CMCC63501), and Gram-(−) bacterial strain of Escherichia coli (CMCC44102) were used for the test, and they were all purchased from the Guangdong Institute of Microbiology (Guangzhou, China).

[2] = tested on: methicillin-resistant Staphylococcus aureus (MRSA); assay: Antibacterial assay (resazurin, 96-well doubling dilution), MRSA; assay type: cell-based; conditions: for MIC: MRSA, read-out: MIC, MRSA
Method: as §1

[3] = tested on: Bacillus subtilis (CMCC63501); assay: Antibacterial assay (resazurin, 96-well doubling dilution), BS; assay type: cell-based
Method: as §1

[4] = tested on: Bacillus cereus (CMCC63302); assay: Antibacterial assay (resazurin, 96-well doubling dilution), BC; assay type: cell-based
Method: as §1

[5] = tested on: Escherichia coli (CMCC44102); assay: Antibacterial assay (resazurin, 96-well doubling dilution), EC; assay type: cell-based
Method: as §1

α-glucosidase = α-glucosidase (Saccharomyces cerevisiae, UniProt P53341); assay: α-Glucosidase inhibition assay (PNPG substrate); conditions: read-out: α-Glucosidase inhibitory activity IC50; mean ± SD (n = 3); pH 6.8, PNPG, 37 °C, 15 min
Method: The a-glucosidase inhibitory activity of the ten isolated compounds was determined in 96-well microtiter plates following the method as described previously [15, 42]. In brief, α-glucosidase (20 μL, 0.5 U/mL) and various concentrations (500, 250, 125, 62.5, 31.2, 15.6, 7.8, 3.9 µg/mL) of tested compounds (120 μL) in 67 mM phosphate buffer (pH 6.8) were mixed in 96-well microtiter plates at room temperature for 10 min. Reactions were initiated by addition of 20 μL of 5.0 mM p-nitrophenyl-α-d-glucopyranoside (PNPG). The reaction mixture was incubated for 15 min at 37 °C in a final volume of 160 μL. Then, 0.2 M Na2CO3 (80 μL) was added to the incubation solution to stop the reaction and the absorbance was determined at 405 nm (for p-nitrophenol). The negative blank was set by adding phosphate buffer instead of test compounds via the same experimental procedure. […] The blank was set by adding phosphate buffer instead of the α-glucosidase using the same method. Inhibition rate (%) = [(ODnegative control − ODblank) − (ODtest − ODtest blank)]/(ODnegative blank − ODblank) × 100%. IC50 values were calculated and expressed as means ± standard deviations (SD) and SPSS 23.0 software was used for the analysis of variances.

[6] = Staphyloccocus aureus, 37 °C, 5–6 h, resazurin colour change
[7] = methicillin-resistant Staphylococcus aureus, 37 °C, 5–6 h, resazurin colour change
[8] = 37 °C, 5–6 h, resazurin colour change
[9] = CMCC63501, 37 °C, 5–6 h, resazurin colour change, read-out: MIC, BS
[10] = CMCC63302, 37 °C, 5–6 h, resazurin colour change, read-out: MIC, BC
[11] = CMCC44102, 37 °C, 5–6 h, resazurin colour change, read-out: MIC, EC

α-glucosidase, sequence (P53341 whole entry): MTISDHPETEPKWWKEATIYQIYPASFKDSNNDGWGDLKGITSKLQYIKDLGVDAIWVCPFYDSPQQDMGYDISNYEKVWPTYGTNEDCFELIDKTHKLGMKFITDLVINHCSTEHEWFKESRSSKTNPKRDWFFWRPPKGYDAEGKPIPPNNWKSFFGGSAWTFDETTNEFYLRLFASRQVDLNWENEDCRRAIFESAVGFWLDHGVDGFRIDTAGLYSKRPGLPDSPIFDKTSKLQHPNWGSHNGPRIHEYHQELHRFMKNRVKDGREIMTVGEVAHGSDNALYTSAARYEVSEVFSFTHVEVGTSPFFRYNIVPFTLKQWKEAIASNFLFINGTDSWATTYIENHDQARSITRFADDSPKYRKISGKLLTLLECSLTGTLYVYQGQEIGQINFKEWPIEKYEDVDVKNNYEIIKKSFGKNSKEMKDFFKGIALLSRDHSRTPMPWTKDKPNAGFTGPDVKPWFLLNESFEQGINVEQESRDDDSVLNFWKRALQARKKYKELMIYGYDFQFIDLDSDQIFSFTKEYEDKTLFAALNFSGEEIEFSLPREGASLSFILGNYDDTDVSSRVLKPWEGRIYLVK

| Compound | MIC, MRSA [2, 7] | MIC [1, 6] | MIC [2, 7] | MIC [3, 9] | MIC [4, 10] | MIC [5, 11] | also measured |
| --- | --- | --- | --- | --- | --- | --- | --- |
| 6,7,8,4′-tetramethoxyflavone [Compound 10] | >100 µg/mL |  |  |  |  |  | MIC, SA [1, 6]: 62.5 µg/mL; MIC, BS [3, 8]: 15.6 µg/mL; MIC, BC [4, 8]: 62.5 µg/mL; MIC, EC [5, 8]: >100 µg/mL; IC50 (α-glucosidase): > 1 mM |
| CC(O)(CO)c1cc2c(O)c3oc(=O)ccc3cc2o1 (stereo not drawn) [Compound 2, 2-(1′,2′-dihydroxypropan-2′-yl)-4-hydroxy-6H-furo [2,3-g][1] benzopyran-6-one] | inactive | 62.5 µg/mL (≈ 226 µM) | > 100 µg/mL | 62.5 µg/mL (≈ 226 µM) | 62.5 µg/mL (≈ 226 µM) | > 100 µg/mL |  |
| COc1cc2oc(=O)ccc2cc1O [Compound 6, isoscopoletin] |  | > 100 µg/mL | > 100 µg/mL | > 100 µg/mL | > 100 µg/mL | > 100 µg/mL |  |
| COc1cc2ccc(=O)oc2c(O)c1O [Compound 7, 7,8-dihydroxy-6-methoxycoumarin] |  | > 100 µg/mL | > 100 µg/mL | > 100 µg/mL | > 100 µg/mL | > 100 µg/mL |  |
| O=c1cc(-c2ccc(O)cc2)oc2cc(O)c(O)cc12 [Compound 9, 6,7,4′-trihydroxyflavone] |  | > 100 µg/mL | > 100 µg/mL | > 100 µg/mL | > 100 µg/mL | > 100 µg/mL |  |
| CN[C@H](CC(C)C)C(=O)N[C@H]1C(=O)N[C@@H](CC(N)=O)C(=O)N[C@H]2C(=O)N[C@H]3C(=O)N[C@H](C(=O)N[C@H](C(=O)O)c4cc(O)cc(O)c4-c4cc3ccc4O)[C@H](O)c3ccc(c(Cl)c3)Oc3cc2cc(c3O[C@@H]2O[C@H](CO)[C@@H](O)[C@H](O)[C@H]2O[C@H]2C[C@](C)(N)[C@H](O)[C@H](C)O2)Oc2ccc(cc2Cl)[C@H]1O [V, Vancomycin, reference compound] |  |  |  |  |  |  | MIC [1]: 1.95 µg/mL (≈ 1.35 µM); MIC ([2]; Staphylococcus aureus): 3.9 µg/mL (≈ 2.69 µM); MIC ([3]; CMCC63501, read-out: MIC, BS): 1.95 µg/mL (≈ 1.35 µM); MIC ([4]; CMCC63302, read-out: MIC, BC): 1.95 µg/mL (≈ 1.35 µM); MIC ([5]; CMCC44102, read-out: MIC, EC): > 100 µg/mL |

Continued by falling MIC [1, 6], values first:

| MIC, MRSA [2, 7] | MIC [1, 6] | MIC [2, 7] | MIC [3, 9] | MIC [4, 10] | MIC [5, 11] | Compound | also measured |
| --- | --- | --- | --- | --- | --- | --- | --- |
| inactive | 62.5 µg/mL (≈ 256 µM) | > 100 µg/mL | 31.2 µg/mL (≈ 128 µM) | 31.2 µg/mL (≈ 128 µM) | > 100 µg/mL | CC(=O)c1cc2c(O)c3oc(=O)ccc3cc2o1 [Compound 1, 2-acetyl-4-hydroxy-6H-furo [2,3-g]chromen-6-one] |  |
| inactive | 31.2 µg/mL (≈ 175 µM) | > 100 µg/mL | 7.81 µg/mL (≈ 43.8 µM) | 31.2 µg/mL (≈ 175 µM) | > 100 µg/mL | O=c1ccc2cc(O)c(O)cc2o1 [Compound 5, esculetin] |  |
| inactive | 15.6 µg/mL (≈ 51.3 µM) | > 100 µg/mL | 15.6 µg/mL (≈ 51.3 µM) | 31.2 µg/mL (≈ 103 µM) | > 100 µg/mL | COc1c(O)cc2c(=O)oc3c(OC)c(O)ccc3c2c1O [Compound 8, 3,8,10-trihydroxy-4,9-dimethoxy-6H-benzo[c]chromen-6-one] |  |
|  | 1.95 µg/mL (≈ 4.77 µM) | 1.95 µg/mL (≈ 4.77 µM) | 1.95 µg/mL (≈ 4.77 µM) | 1.95 µg/mL (≈ 4.77 µM) | > 100 µg/mL | COc1c(O)cc2oc3cc4c(c(O)c3c(=O)c2c1CC=C(C)C)C=CC(C)(C)O4 [Compound 4, 5,9-dihydroxy-8-methoxy-2,2-dimethyl-7-(3-methylbut-2-enyl)-2H,6H-pyrano [3,2-b]xanthen-6-one] |  |
|  | 1.95 µg/mL | > 100 µg/mL | 1.95 µg/mL | 3.9 µg/mL | 1.95 µg/mL | NC[C@H]1O[C@H](O[C@H]2[C@H](O)[C@@H](O[C@H]3O[C@H](CO)[C@@H](O)[C@H](N)[C@H]3O)[C@H](N)C[C@@H]2N)[C@H](O)[C@@H](O)[C@@H]1O [K, Kanamycin sulfate, reference compound] |  |
